Experimental data from ChEMBL document CHEMBL1201862, “PubChem BioAssay data set” (2004).
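Cells were grown in 96-well plates and exposed to each compound for 48 hours at five concentrations; endpoints were interpolated linearly between bracketing concentrations, or set to the highest concentration if not reached. GI50 is the concentration that inhibits growth by half.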 Active and inactive are the calls of the source. Rule as the data show it: active = GI50 up to about 1.1 µM and inactive = higher.

What was measured:
Assay in all cases: NCI anticancer screen, dose series, 48 h
ACHN = test system: ACHN
HCT-15 = test system: HCT-15
HOP-62 = test system: HOP-62
IGROV-1 = test system: IGROV-1
MOLT-4 = test system: MOLT-4
Malme-3M = test system: Malme-3M
NCI-H23 = test system: NCI-H23
RPMI-8226 = test system: RPMI-8226
SK-MEL-5 = test system: SK-MEL-5
SK-OV-3 = test system: SK-OV-3
SNB-75 = test system: SNB-75
U-251 = test system: U-251
UACC-62 = test system: UACC-62
UO-31 = test system: UO-31
NCI-H522 = test system: NCI-H522
SR = test system: SR
HOP-92 = test system: HOP-92

Compound	GI50 (ACHN)	GI50 (HCT-15)	GI50 (HOP-62)	GI50 (IGROV-1)	GI50 (MOLT-4)	GI50 (Malme-3M)	GI50 (NCI-H23)	GI50 (RPMI-8226)	GI50 (SK-MEL-5)	GI50 (SK-OV-3)	GI50 (SNB-75)	GI50 (U-251)	GI50 (UACC-62)	GI50 (UO-31)	GI50 (NCI-H522)	GI50 (SR)	GI50 (HOP-92)
O=C1CC(c2c[nH]c3ccccc23)C(=O)N1 (stereo not drawn)	> 100 µM (inactive)	> 100 µM	> 100 µM (inactive)	> 100 µM (inactive)	> 100 µM (inactive)	> 100 µM (inactive)	> 100 µM (inactive)	> 100 µM (inactive)	> 100 µM (inactive)	> 100 µM (inactive)	> 100 µM (inactive)	> 100 µM (inactive)	> 100 µM (inactive)	> 100 µM (inactive)	–	–	–
C/C(CN1C(=O)c2ccccc2C1=O)=N\NS(=O)(=O)c1ccc(Cl)cc1	> 100 µM (inactive)	> 100 µM	> 100 µM (inactive)	> 100 µM (inactive)	> 100 µM (inactive)	> 100 µM (inactive)	> 100 µM (inactive)	> 100 µM (inactive)	> 100 µM (inactive)	–	> 100 µM (inactive)	> 100 µM (inactive)	> 100 µM (inactive)	> 100 µM (inactive)	> 100 µM (inactive)	> 100 µM (inactive)	–
C/C(CCn1[nH]c(=O)ccc1=O)=N\O	> 100 µM (inactive)	> 100 µM	> 100 µM (inactive)	> 100 µM (inactive)	> 100 µM (inactive)	> 100 µM (inactive)	> 100 µM (inactive)	> 100 µM (inactive)	> 100 µM (inactive)	–	> 100 µM (inactive)	–	> 100 µM (inactive)	> 100 µM (inactive)	–	> 100 µM (inactive)	> 100 µM (inactive)
COc1cccc2cc(C)c(C(=O)c3ccccc3)nc12	> 100 µM (inactive)	> 100 µM	> 100 µM (inactive)	> 100 µM (inactive)	> 100 µM (inactive)	> 100 µM (inactive)	> 100 µM (inactive)	> 100 µM (inactive)	> 100 µM (inactive)	–	91.2 µM (inactive)	> 100 µM (inactive)	> 100 µM (inactive)	> 100 µM (inactive)	> 100 µM (inactive)	–	–
COC(=O)c1cc(=O)nc2cc3cccccc3n12	> 100 µM (inactive)	> 100 µM	> 100 µM (inactive)	> 100 µM (inactive)	> 100 µM (inactive)	> 100 µM (inactive)	> 100 µM (inactive)	> 100 µM (inactive)	> 100 µM (inactive)	> 100 µM (inactive)	> 100 µM (inactive)	> 100 µM (inactive)	> 100 µM (inactive)	> 100 µM (inactive)	> 100 µM (inactive)	> 100 µM (inactive)	–
C[C@]12CC/C(=N\O)C=C1CC[C@@H]1C2CC[C@@]2(C)C1CC[C@@H]2OC1CCCCO1 (stereo partly drawn)	16.3 µM (inactive)	20.1 µM	31.2 µM (inactive)	35.6 µM (inactive)	12.4 µM (inactive)	21.9 µM (inactive)	17.3 µM (inactive)	15.7 µM (inactive)	32.1 µM (inactive)	21.9 µM (inactive)	18.9 µM (inactive)	17.9 µM (inactive)	> 10 µM (inactive)	21.7 µM (inactive)	17.4 µM (inactive)	–	17.7 µM (inactive)
COC(=O)/C(=N\Nc1nc(S)nn1N)C(C#N)c1ccc(Cl)cc1 (stereo not drawn)	> 100 µM (inactive)	> 100 µM	> 100 µM (inactive)	> 100 µM (inactive)	–	> 100 µM (inactive)	> 100 µM (inactive)	> 100 µM (inactive)	–	> 100 µM (inactive)	> 100 µM (inactive)	> 100 µM (inactive)	> 100 µM (inactive)	> 100 µM (inactive)	–	–	> 100 µM (inactive)
Cc1cc(C)nc(NS(=O)(=O)c2ccc(Nc3c4ccccc4nc4c(C(=O)NCCN(C)C)ccc(Cl)c34)cc2)n1	2.02 µM (inactive)	2.78 µM	2.85 µM (inactive)	2.06 µM (inactive)	0.255 µM (active)	–	2.43 µM (inactive)	–	4.38 µM (inactive)	–	2.59 µM (inactive)	1.66 µM (inactive)	1.74 µM (inactive)	1.71 µM (inactive)	1.24 µM (inactive)	0.259 µM (active)	–
N#CC1CCCCOCCOCCOCCOCCOCCCCCC1=O (stereo not drawn)	> 100 µM (inactive)	> 100 µM	> 100 µM (inactive)	> 100 µM (inactive)	> 100 µM (inactive)	> 100 µM (inactive)	> 100 µM (inactive)	> 100 µM (inactive)	> 100 µM (inactive)	> 100 µM (inactive)	> 100 µM (inactive)	> 100 µM (inactive)	> 100 µM (inactive)	> 100 µM (inactive)	> 100 µM (inactive)	> 100 µM (inactive)	–
COC(=O)/C(C#N)=C1\CCC(Nc2cccc(C(F)(F)F)c2)N1C (stereo not drawn)	61.8 µM (inactive)	–	> 100 µM (inactive)	> 100 µM (inactive)	51.6 µM (inactive)	> 100 µM (inactive)	72.1 µM (inactive)	> 100 µM (inactive)	–	84.3 µM (inactive)	43.3 µM (inactive)	> 100 µM (inactive)	61 µM (inactive)	63.1 µM (inactive)	> 100 µM (inactive)	–	–
COc1c(C)cc2c(c1O)C1C3[C@H]4SC[C@@]5(NCCC6=C5NC5C=CC=CC65)C(=O)OCC(c5c6c(c(C)c(OC(C)=O)c54)OCO6)N3[C@@H](O)C(C2)N1C (stereo partly drawn)	< 0.01 µM (active)	< 0.01 µM	< 0.01 µM (active)	< 0.01 µM (active)	< 0.01 µM (active)	< 0.01 µM (active)	< 0.01 µM (active)	< 0.01 µM (active)	< 0.01 µM (active)	–	< 0.01 µM (active)	< 0.01 µM (active)	< 0.01 µM (active)	< 0.01 µM (active)	–	< 0.01 µM (active)	–
Cc1cc(Br)cc(C)c1NC(=O)C(=O)C(C(=O)c1ccncc1)C1OC(=O)c2ccccc21 (stereo not drawn)	> 100 µM (inactive)	> 100 µM	> 100 µM (inactive)	> 100 µM (inactive)	> 100 µM (inactive)	> 100 µM (inactive)	> 100 µM (inactive)	> 100 µM (inactive)	–	> 100 µM (inactive)	–	> 100 µM (inactive)	> 100 µM (inactive)	> 100 µM (inactive)	> 100 µM (inactive)	> 100 µM (inactive)	> 100 µM (inactive)
CCOC1=NC(=O)CC(c2ccccc2)S1 (stereo not drawn)	> 100 µM (inactive)	> 100 µM	–	> 100 µM (inactive)	> 100 µM (inactive)	> 100 µM (inactive)	–	> 100 µM (inactive)	> 100 µM (inactive)	–	–	49.2 µM (inactive)	> 100 µM (inactive)	> 100 µM (inactive)	–	–	> 100 µM (inactive)
O=C(NO)C12C3C4C1C1C2C3C41C(=O)NO (stereo not drawn)	> 100 µM (inactive)	> 100 µM	> 100 µM (inactive)	–	> 100 µM (inactive)	> 100 µM (inactive)	–	> 100 µM (inactive)	> 100 µM (inactive)	> 100 µM (inactive)	> 100 µM (inactive)	> 100 µM (inactive)	> 100 µM (inactive)	> 100 µM (inactive)	> 100 µM (inactive)	–	–
COCN1COCN(C)C1=O	> 100 µM (inactive)	> 100 µM	> 100 µM (inactive)	> 100 µM (inactive)	–	> 100 µM (inactive)	> 100 µM (inactive)	> 100 µM (inactive)	> 100 µM (inactive)	> 100 µM (inactive)	> 100 µM (inactive)	> 100 µM (inactive)	> 100 µM (inactive)	> 100 µM (inactive)	–	–	> 100 µM (inactive)
C[C@@H](NC1CCC[C@@H]1O)c1ccccc1 (stereo partly drawn)	> 100 µM (inactive)	> 100 µM	> 100 µM (inactive)	> 100 µM (inactive)	> 100 µM (inactive)	> 100 µM (inactive)	–	> 100 µM (inactive)	> 100 µM (inactive)	> 100 µM (inactive)	> 100 µM (inactive)	> 100 µM (inactive)	> 100 µM (inactive)	> 100 µM (inactive)	–	–	> 100 µM (inactive)
CCCCCCCCCC(=O)NC(Cc1ccc(O)cc1)C(=O)NCCCNCCCCNCCCNC(=O)[C@@H](N)CCCN=C(N)N (stereo partly drawn)	18.9 µM (inactive)	86.7 µM	22.9 µM (inactive)	17.9 µM (inactive)	> 100 µM (inactive)	20.4 µM (inactive)	57.7 µM (inactive)	64.9 µM (inactive)	12.8 µM (inactive)	36.6 µM (inactive)	–	> 10 µM (inactive)	–	31.9 µM (inactive)	28.8 µM (inactive)	73.3 µM (inactive)	–
CCOC(=O)Nc1ccc(S(=O)(=O)OC)cc1.CCOC(=O)Nc1ccc(S(=O)(=O)OC)cc1.Nc1ncnc2c1ncn2C1OC(CO)C(O)C1O (stereo not drawn)	> 100 µM (inactive)	34.2 µM	> 100 µM (inactive)	> 100 µM (inactive)	> 100 µM (inactive)	> 100 µM (inactive)	> 100 µM (inactive)	21.6 µM (inactive)	> 100 µM (inactive)	> 100 µM (inactive)	> 100 µM (inactive)	–	> 100 µM (inactive)	> 100 µM (inactive)	–	–	> 100 µM (inactive)
CSc1c([S+](C)[O-])[nH]c2cc(Br)cc(Br)c12 (stereo not drawn)	24.5 µM (inactive)	22.8 µM	–	37.1 µM (inactive)	18.1 µM (inactive)	24.9 µM (inactive)	19.3 µM (inactive)	18.8 µM (inactive)	18.3 µM (inactive)	27.9 µM (inactive)	17.3 µM (inactive)	0.0376 µM (active)	17.9 µM (inactive)	23.4 µM (inactive)	23.3 µM (inactive)	–	10.9 µM (inactive)
